Experimental data: US20240279288A1, “APPLICATION OF PLANT JAZ PROTEINS AND DERIVED POLYPEPTIDES IN PREVENTION AND TREATMENT OF HUMAN AND ANIMAL TUMORS” (ANYANG INSTITUTE OF SINO-COTTON INDUSTRY INNOVATION, priority 2021, published 2024)

Tests used:
[1] = system: JA content of callus of cotton "CCRI 24"; experiment: JA content in cotton callus (HPLC); settings: DIECA 200, 400, 800 μM or ibuprofen 20, 40, 80 μM in callus induction medium
Experimental: (§1) Explants from “CCRI 24” were cut to consistent length and placed under the same conditions for cultivation. After one month, the growth of callus was observed and photographed with a camera and microscope. Statistics on the weights of callus and measurement of JA content were performed.

[2] = system: callus of cotton "CCRI 24"; experiment: Growth of cotton callus on medium with JA synthesis inhibitor; settings: DIECA 200, 400, 800 μM or ibuprofen 20, 40, 80 μM in callus induction medium; hypocotyl explants
Experimental: as §1

[3] = system: cell cycle-related genes of callus; experiment: Fluorescence quantitative PCR of cell cycle-related genes in cotton callus; settings: DIECA 200, 400, 800 μM or ibuprofen 20, 40, 80 μM in callus induction medium
Experimental: Identification at the RNA level: RNA was extracted using RNA extraction kit (RNAprep Pure Polysaccharide Polyphenol Plant Total RNA Extraction Kit (DP441), manufacturer: TIANGEN BIOTECH (BEIJING) CO., LTD.), and then cDNA was obtained using two-step reverse transcription kit (a third-generation premix for two-step de-genomization and reverse transcription, Cat. No.: MR05201). cDNA as a template was added into a 96-well plate, with addition of SYBR®Green I chimeric dye (an antibody dye quantitative PCR premix, Cat. No.: MQ10101) and gene primers for three-step qPCR amplification. Finally, the relative gene expression was calculated based on the Ct value.
The steps of RNA extraction, reverse transcription, and fluorescence quantitative PCR were the same as above, and the sequences of primers were as follows: […]
as §1

MCF7 cells = experiment: Detection of GhJAZ1 protein entry into the nucleus, fluorescence microscope; assay type: cell-based, human; settings: 0.5 μM
Description: In order to explore how GhJAZ1 enters cancer cells, we cloned the genes of most tumor surface receptors, including uPAR (NCBI database accession number of NM_002659.4), CCK1R (NP_000721.1), CCK2R (NP_001350481.1), HER2 (NP_004439.2), GRPR (NP_005305.1), MUC1 (NP_001358649.1), VEGFR1 (NP_002010.2), Insulin receptor (NM_000208.4), NTR (XM_011528827.2), PSMA (XM_017017432.1), TFR1 (NM_001128148.3), TFR2 (NM_003227.4), PEPT1 (NM_005073.4), APN (NM_001150.3). The receptor proteins that interact with GhJAZ1 were then screened by yeast two hybrid (the steps of the experiment as Example 3). […] We detected the interaction of GhJAZ1 with uPA (as the ligand of uPAR, NCBI database accession number of NP_002649.2) and uPAR by yeast two hybrid (the steps of the experiment as Example 3). […] GhJAZ1+RFP (the amino acid sequence set forth in SEQ ID No. 81, corresponding encoding gene sequence set forth in SEQ ID No. 82) was ligated to pET-30a (+) vector (YouBio, Cat. No.: VT1212) between NdeI and HindIII, and GhJAZ1+RFP protein with red fluorescence was prokaryotically expressed and purified (the step of method as step 2 in Example 4) (A in FIG. 11), and then MCF7 cells were treated with GhJAZ1+RFP protein and observed by a fluorescence microscope.

Row | Compound | JA content of callus [1] | growth of callus of cotton [2] | cell cycle-related genes of callus [3] | entry into the nucleus of MCF7 cells (red fluorescence merged with blue nuclear fluorescence) (MCF7 cells)
1 | CCN(CC)C(=S)[S-].[Na+] [DIECA] | significantly decreased | significantly inhibit | marked changes | –
2 | CC(C)Cc1ccc(C(C)C(=O)O)cc1 (stereo not shown) [ibuprofen] | significantly decreased | significantly inhibit | marked changes | –
3 | GhJAZ1+RFP: GhJAZ1 fused with RFP, red fluorescence, amino acid sequence SEQ ID No. 81 | – | – | – | entered the nucleus
